Here are results for 27 molecules from patent US10053463B2 (Janssen Pharmaceutica NV, priority 2013, dated 2018).

P2X7, sequence (Q99572 whole entry): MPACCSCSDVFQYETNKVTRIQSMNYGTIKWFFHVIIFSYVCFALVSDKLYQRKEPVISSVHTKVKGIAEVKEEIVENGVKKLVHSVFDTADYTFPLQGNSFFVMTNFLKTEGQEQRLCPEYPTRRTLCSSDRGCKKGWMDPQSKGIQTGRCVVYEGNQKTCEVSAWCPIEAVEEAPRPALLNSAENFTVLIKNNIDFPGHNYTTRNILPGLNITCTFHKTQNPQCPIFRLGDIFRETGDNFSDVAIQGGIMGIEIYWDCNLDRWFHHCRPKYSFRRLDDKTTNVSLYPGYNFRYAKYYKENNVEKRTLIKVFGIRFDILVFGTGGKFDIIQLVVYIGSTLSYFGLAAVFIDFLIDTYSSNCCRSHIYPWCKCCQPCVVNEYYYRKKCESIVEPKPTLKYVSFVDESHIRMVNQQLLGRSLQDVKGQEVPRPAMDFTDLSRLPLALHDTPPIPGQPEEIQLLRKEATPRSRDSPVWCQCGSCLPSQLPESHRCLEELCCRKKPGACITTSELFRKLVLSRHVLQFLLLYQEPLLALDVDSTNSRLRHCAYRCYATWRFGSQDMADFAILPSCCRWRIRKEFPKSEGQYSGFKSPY

This test addresses P2X7 (Homo sapiens (Human), UniProt Q99572). Kind of test: P2X7 antagonism in human peripheral blood mononuclear cells (PBMCs), IL-1β release. It counts as cell-based. Particulars: P2X7; Table 3 (additional runs); 10 μM compound; read-out: PBMC 10 μM (% control). As for the experimental part: P2X7 Antagonism in Human Peripheral Blood Mononuclear Cells (PBMCs) and Human Whole Blood.
Human blood was collected using a blood donor program. PBMCs were isolated from blood using a Ficoll density gradient technique. Briefly, blood was laid on Ficoll solution and centrifuged at RT for 20 minutes at 2000 rpm. The buffy layer (between red blood cells and plasma) was carefully collected by aspiration, washed with PBS and centrifuged again at 1500 rpm for 15 minutes. The resulting cell pellet was washed and plated on 96 well-plates for experiments. For the Human Whole Blood experiments, 150 μl of human blood was platted on 96 well-plates. Lipopolysaccharide (LPS) (30 ng/ml) was added to each well and incubated for 1 hour. Test compounds were then added and incubated for 30 minutes. The P2X7 agonist, 2′(3′)-O-(4-benzoylbenzoyl) adenosine 5′-triphosphate (Bz-ATP) was then added at a final concentration of 0.5 mM (PBMC) or 1 mM (blood). Cells were incubated for an additional 1.5 hours. At that point, supernatant was collected and stored for IL-1β assay using manufacturer's protocol for enzyme-linked immunosorbent assay (ELISA). Data was expressed as percent control, where control is defined as the difference in IL-1β release in LPS+Bz-ATP samples and LPS only samples. Data was plotted as response (% control) versus concentration to generate IC50 values. […] Data are analyzed and graphed on Graphpad Prism 5. For analysis, each concentration point is averaged from triplicate values and the averaged values are plotted on Graphpad Prism.
Regarding `C[C@H]1Cn2c(nnc2-c2ccc(F)cc2)C(=O)N1Cc1cccc(C(F)(F)F)c1Cl` [Example 17, (6S)-7-[2-Chloro-3-(trifluoromethyl)benzyl]-3-(4-fluorophenyl)-6-methyl-6,7-dihydro[1,2,4]triazolo[4,3-a]pyrazin-8(5H)-one], the remaining activity at 10 µM came out at 2%.
The same measure for `C[C@H]1Cn2c(nnc2-c2ccccn2)C(=O)N1Cc1cccc(C(F)(F)F)c1Cl` [Example 18, (6S)-7-[2-Chloro-3-(trifluoromethyl)benzyl]-6-methyl-3-pyridin-2-yl-6,7-dihydro[1,2,4]triazolo[4,3-a]pyrazin-8(5H)-one]: -6.2%; for `Cc1cnc(-c2nnc3n2C[C@H](C)N(Cc2cccc(C(F)(F)F)c2Cl)C3=O)cn1` [Example 19, (6S)-7-[2-Chloro-3-(trifluoromethyl)benzyl]-6-methyl-3-(5-methylpyrazin-2-yl)-6,7-dihydro[1,2,4]triazolo[4,3-a]pyrazin-8(5H)-one]: -9.5%.
As to `C[C@H]1Cn2c(nnc2-c2ncco2)C(=O)N1Cc1cccc(C(F)(F)F)c1Cl` [Example 20, (6S)-7-[2-Chloro-3-(trifluoromethyl)benzyl]-6-methyl-3-(1,3-oxazol-2-yl)-6,7-dihydro[1,2,4]triazolo[4,3-a]pyrazin-8(5H)-one], the remaining activity at 10 µM is 4.7%.
The result for `C[C@H]1Cn2c(nnc2-c2cocn2)C(=O)N1Cc1cccc(C(F)(F)F)c1Cl` [Example 21, (6S)-7-[2-Chloro-3-(trifluoromethyl)benzyl]-6-methyl-3-(1,3-oxazol-4-yl)-6,7-dihydro[1,2,4]triazolo[4,3-a]pyrazin-8(5H)-one] reads -3.4%; that for `C[C@H]1Cn2c(nnc2-c2cnco2)C(=O)N1Cc1cccc(C(F)(F)F)c1Cl` [Example 22, (6S)-7-[2-Chloro-3-(trifluoromethyl)benzyl]-6-methyl-3-(1,3-oxazol-5-yl)-6,7-dihydro[1,2,4]triazolo[4,3-a]pyrazin-8(5H)-one], -3.9%.
The same measure for `C[C@H]1Cn2c(nnc2-c2ccn(C)n2)C(=O)N1Cc1cccc(C(F)(F)F)c1Cl` [Example 23, (6S)-7-[2-Chloro-3-(trifluoromethyl)benzyl]-6-methyl-3-(1-methyl-1H-pyrazol-3-yl)-6,7-dihydro[1,2,4]triazolo[4,3-a]pyrazin-8(5H)-one]: -7%; for `C[C@H]1Cn2c(nnc2-c2cnn(C)c2)C(=O)N1Cc1cccc(C(F)(F)F)c1Cl` [Example 24, (6S)-7-[2-Chloro-3-(trifluoromethyl)benzyl]-6-methyl-3-(1-methyl-1H-pyrazol-4-yl)-6,7-dihydro[1,2,4]triazolo[4,3-a]pyrazin-8(5H)-one]: -0.7%.
The same measure for `C[C@H]1Cn2c(nnc2-c2cn[nH]c2)C(=O)N1Cc1cccc(C(F)(F)F)c1Cl` [Example 25, (6S)-7-[2-Chloro-3-(trifluoromethyl)benzyl]-6-methyl-3-(1H-pyrazol-4-yl)-6,7-dihydro[1,2,4]triazolo[4,3-a]pyrazin-8(5H)-one]: 2.8%; for `Cc1cc(-c2nnc3n2C[C@H](C)N(Cc2cccc(C(F)(F)F)c2Cl)C3=O)n[nH]1` [Example 26, (6S)-7-[2-Chloro-3-(trifluoromethyl)benzyl]-6-methyl-3-(5-methyl-1H-pyrazol-3-yl)-6,7-dihydro[1,2,4]triazolo[4,3-a]pyrazin-8(5H)-one]: -3.7%.
`C[C@H]1Cn2c(nnc2-c2ncccn2)C(=O)N1Cc1cccc(C(F)(F)F)c1Cl` [Example 27, (6S)-7-[2-Chloro-3-(trifluoromethyl)benzyl]-6-methyl-3-pyrimidin-2-yl-6,7-dihydro[1,2,4]triazolo[4,3-a]pyrazin-8(5H)-one]: the remaining activity at 10 µM was -0.7%.
The result for `C[C@H]1Cn2c(nnc2-c2cc[nH]n2)C(=O)N1Cc1cccc(C(F)(F)F)c1Cl` [Example 28, (6S)-7-[2-Chloro-3-(trifluoromethyl)benzyl]-6-methyl-3-(1H-pyrazol-3-yl)-6,7-dihydro[1,2,4]triazolo[4,3-a]pyrazin-8(5H)-one] reads -11.7%; that for `C[C@H]1Cn2c(nnc2-c2cccnc2)C(=O)N1Cc1cccc(C(F)(F)F)c1Cl` [Example 29, (6S)-7-[2-Chloro-3-(trifluoromethyl)benzyl]-6-methyl-3-pyridin-3-yl-6,7-dihydro[1,2,4]triazolo[4,3-a]pyrazin-8(5H)-one], -3.4%.
Regarding `C[C@H]1Cn2c(nnc2-c2ccc(F)cn2)C(=O)N1Cc1cccc(C(F)(F)F)c1Cl` [Example 30, (6S)-7-[2-Chloro-3-(trifluoromethyl)benzyl]-3-(5-fluoropyridin-2-yl)-6-methyl-6,7-dihydro[1,2,4]triazolo[4,3-a]pyrazin-8(5H)-one], the remaining activity at 10 µM was 3.4%.
The result for `C[C@H]1Cn2c(nnc2-c2nccs2)C(=O)N1Cc1cccc(C(F)(F)F)c1Cl` [Example 31, (6S)-7-[2-Chloro-3-(trifluoromethyl)benzyl]-6-methyl-3-(1,3-thiazol-2-yl)-6,7-dihydro[1,2,4]triazolo[4,3-a]pyrazin-8(5H)-one] reads 3%; that for `C[C@H]1Cn2c(nnc2-c2cscn2)C(=O)N1Cc1cccc(C(F)(F)F)c1Cl` [Example 32, (6S)-7-[2-Chloro-3-(trifluoromethyl)benzyl]-6-methyl-3-(1,3-thiazol-4-yl)-6,7-dihydro[1,2,4]triazolo[4,3-a]pyrazin-8(5H)-one], 3.8%; that for `C[C@H]1Cn2c(nnc2-c2ccncn2)C(=O)N1Cc1cccc(C(F)(F)F)c1Cl` [Example 33, (6S)-7-[2-Chloro-3-(trifluoromethyl)benzyl]-6-methyl-3-pyrimidin-4-yl-6,7-dihydro[1,2,4]triazolo[4,3-a]pyrazin-8(5H)-one], 0.9%.
Turning to `C[C@H]1Cn2c(nnc2-c2ncc(F)cn2)C(=O)N1Cc1cccc(C(F)(F)F)c1Cl` [Example 34, (6S)-7-[2-Chloro-3-(trifluoromethyl)benzyl]-3-(5-fluoropyrimidin-2-v1)-6-methyl-6,7-dihydro[1,2,4]triazolo[4,3-a]pyrazin-8(5H)-one], the remaining activity at 10 µM is 0.8%.
As for `COc1ccnc(-c2nnc3n2C[C@H](C)N(Cc2cccc(C(F)(F)F)c2Cl)C3=O)c1` [Example 35, (6S)-7-[2-Chloro-3-(trifluoromethyl)benzyl]-3-(4-methoxypyridin-2-yl)-6-methyl-6,7-dihydro[1,2,4]triazolo[4,3-a]pyrazin-8(5H)-one], the remaining activity at 10 µM was -3.1%.
As to `Cc1nc(-c2nnc3n2C[C@H](C)N(Cc2cccc(C(F)(F)F)c2Cl)C3=O)cs1` [Example 36, (6S)-7-[2-Chloro-3-(trifluoromethyl)benzyl]-6-methyl-3-(2-methyl-1,3-thiazol-4-yl)-6,7-dihydro[1,2,4]triazolo[4,3-a]pyrazin-8(5H)-one], the remaining activity at 10 µM came out at 2.8%.
The same measure for `C[C@H]1Cn2c(nnc2-c2cncs2)C(=O)N1Cc1cccc(C(F)(F)F)c1Cl` [Example 37, (6S)-7-[2-Chloro-3-(trifluoromethyl)benzyl]-6-methyl-3-(1,3-thiazol-5-yl)-6,7-dihydro[1,2,4]triazolo[4,3-a]pyrazin-8(5H)-one]: 9%; for `C[C@H]1Cn2c(nnc2-c2csc(C(F)(F)F)n2)C(=O)N1Cc1cccc(C(F)(F)F)c1Cl` [Example 38, (6S)-7-[2-Chloro-3-(trifluoromethyl)benzyl]-6-methyl-3-[2-(trifluoromethyl)-1,3-thiazol-4-yl]-6,7-dihydro[1,2,4]triazolo[4,3-a]pyrazin-8(5H)-one]: 19.8%.
As for `Cc1nc(C)c(-c2nnc3n2C[C@H](C)N(Cc2cccc(C(F)(F)F)c2Cl)C3=O)s1` [Example 39, (6S)-7-[2-Chloro-3-(trifluoromethyl)benzyl]-3-(2,4-dimethyl-1,3-thiazol-5-yl)-6-methyl-6,7-dihydro[1,2,4]triazolo[4,3-a]pyrazin-8(5H)-one], the remaining activity at 10 µM worked out at 20.3%.
The result for `Cc1ncsc1-c1nnc2n1C[C@H](C)N(Cc1cccc(C(F)(F)F)c1Cl)C2=O` [Example 40, (6S)-7-[2-Chloro-3-(trifluoromethyl)benzyl]-6-methyl-3-(4-methyl-1,3-thiazol-5-yl)-6,7-dihydro[1,2,4]triazolo[4,3-a]pyrazin-8(5H)-one] reads 22.3%; that for `C[C@H]1Cn2c(nnc2-c2ccon2)C(=O)N1Cc1cccc(C(F)(F)F)c1Cl` [Example 41, (6S)-7-[2-Chloro-3-(trifluoromethyl)benzyl]-3-isoxazol-3-yl-6-methyl-6,7-dihydro[1,2,4]triazolo[4,3-a]pyrazin-8(5H)-one], 35%; that for `C[C@H]1Cn2c(nnc2-c2ncc(Br)cn2)C(=O)N1Cc1cccc(C(F)(F)F)c1Cl` [Example 42, (6S)-3-(5-Bromopyrimidin-2-yl)-7-[2-chloro-3-(trifluoromethyl)benzyl]-6-methyl-6,7-dihydro[1,2,4]triazolo[4,3-a]pyrazin-8(5H)-one], 37.4%.
Turning to `C[C@H]1Cn2c(nnc2-c2cccnn2)C(=O)N1Cc1cccc(C(F)(F)F)c1Cl` [Example 44, (6S)-7-[2-Chloro-3-(trifluoromethyl)benzyl]-6-methyl-3-pyridazin-3-yl-6,7-dihydro[1,2,4]triazolo[4,3-a]pyrazin-8(5H)-one], the remaining activity at 10 µM is 26%.
